Data published in paper PMC3929365, “Benzimidazoisoquinolines: A New Class of Rapidly Metabolized Aryl Hydrocarbon Receptor (AhR) Ligands that Induce AhR-Dependent Tregs and Prevent Murine Graft-Versus-Host Disease” (PLoS ONE, 2014).

Columns and labels:
donor CD4+ T cells = assay: AhR-Treg phenotype of alloactivated donor CD4+ T cells 48 h after initiating the GVH response; assay type: in vivo, B6D2F1 host mice
Procedure: Splenocytes and lymphocytes were harvested from C57Bl/6 mice. In some experiments, T cells were purified by negative selection using a Pan-T kit (Miltenyi Biotec) and stained with 2 µM carboxyfluorescein succinimidyl ester (CFSE) (Life Technologies). At least 2×10^7 purified T cells or approximately 1×10^8 pooled splenocytes and lymphocytes were injected i.v. into B6D2F1 host mice to initiate the GVH response. GVHD pathology was assessed on a scale of 0 to 3 (0 = normal, 1 = moderate morbidity, 2 = severe morbidity, 3 = death) according to the following five criteria: weight-loss, posture, activity, fur texture and death and reported as a Clinical GVHD Score.
Host mice were treated daily with vehicle, 10-Cl-BBQ or BBQ analogues by i.p. injection. The vehicle consisted of a mixture of 6.7% anisole and peanut oil. Mice treated with a single i.p. dose of 15 µg TCDD/kg body weight in the same vehicle were used as positive controls.
Antibodies to CTLA-4, Foxp3, ICOS, CD62L, CD25, CD19, CD44) and a fixable viability dye were purchased from eBiosciences. Additional antibody reagents included CD4 and CD8 (Life Technologies); H-2D^d (Biolegend) and CD45RB (PharMingen). After surface staining, the cells were fixed and permeabilized with Cytofix/cytoperm (BD Biosciences) for intracellular CTLA-4 stain. The flow cytometry data were acquired on an FC500 instrument (Beckman Coulter) and the data were analyzed using WinList 7.0 (Verity Software House). Fluorescence minus one (FMO) controls were used for setting histogram gates during the analysis.
Figure 3 10-Cl-BBQ induces an AhR-dependent Treg phenotype 48 h after initiating the GVH response. On day 0, B6D2F1 host mice in groups of 5 were injected with CFSE-labeled C57Bl/6 T cells and given 15 mg/kg 10-Cl-BBQ, 15 µg/kg TCDD or vehicle by i.p. injection. At 24 h, an additional dose of 7 mg/kg 10-Cl-BBQ or vehicle was given. […] Treatment mean ± SEM is shown in the quadrant of interest. […] C) AhR-dependent induction of the donor Treg phenotype by 10-Cl-BBQ. On day 0, B6D2F1 host mice in groups of 5 were injected with donor T cells obtained from AhR^+/+ or AhR^−/− C57Bl/6 mice. Host mice were treated with 2 mg/kg10-Cl-BBQ or vehicle immediately following donor cell transfer and again at 24 hr. […] D) Dose-dependent induction of Treg phenotype by 10-Cl-BBQ. On day 0, B6D2F1 host mice in groups of 3–5 were injected with C57Bl/6 T cells. Mice were immediately treated with 0, 0.4, 2 or 10 mg/kg 10-Cl-BBQ and again on day 1. On day 2, expression of markers associated with the AhR-Treg phenotype increased as the dose of 10-Cl-BBQ increased. E) In the same mice as in D, lymph nodes were harvested and analyzed for expression of genes that were previously shown to increase under the same GVH conditions with TCDD treatment (13). […] Changes in gene expression were calculated relative to the β-actin gene, and the fold-induction was calculated by the ΔΔCt method using the vehicle-treated samples as a control. * = p<0.05 relative to vehicle treatment. […]

AhR = assay: Subtilisin proteolysis pattern of AhR in Hepa1c1c7 whole cell lysate; assay type: biochemical, mouse; details: 100 nM, 1 h, 1 µg/ml subtilisin
Procedure: Figure 1 10-Cl-BBQ is a potent AhR ligand. A) Structure of 10-Cl-BBQ. […] C) Hepa-1 cells expressing endogenous AhR were transfected with an AhR-regulated luciferase reporter gene (xenobiotic responsive element (XRE)-MMTVpromoter-Luc) and the reporter gene activity was measured after 12 h of treatment with 1 nM TCDD or the indicated concentrations of 10-Cl-BBQ. D) Alteration in proteolytic pattern of AhR by 10-Cl-BBQ. Whole cell lysate (45 µg of protein) from mouse hepatoma Hepa1c1c7 cells was incubated with 100 nM 10-Cl-BBQ or 0.1% DMSO for 1 h at RT and proteolyzed by 1 µg/ml subtilisin for 1, 2, 4, and 8 min at RT. Proteolytic cleavage products of AhR were analyzed by immunoblot. E) Electrophoretic mobility shift assay showing the ligand-stimulated binding of AhR to XRE. Whole cell lysate (18 µg of protein) from mouse hepatoma Hepa1c1c7 cells was incubated with 10 nM 10-Cl-BBQ or 0.1% DMSO for 2 h at room temperature and ^32P-labeled oligonucleotide containing XRE for 20 min at room temperature. The samples were electrophoresed on a native polyacrylamide gel and the signal was visualized by Phosphor Imager. Unlabeled competitor XRE or antibody (Ab) against AhR or Arnt was co-incubated with ^32P-labeled oligonucleotide.

Compound: O=c1c2cccc3cccc(c32)c2nc3ccc(Cl)cc3n12 [10-Cl-BBQ, 10-chloro-7H-benzimidazo[2,1-a]benzo[de]isoquinolin-7-one]
- changes in parameters associated with AhR-Tregs (donor CD4+ T cells; 0.4 mg/kg/day for two days): failed to induce significant changes
- induction of the Treg phenotype with AhR-deficient donor T cells (donor CD4+ T cells; AhR−/− donor T cells, 2 mg/kg at 0 and 24 hr, day 2): failed to induce the Treg phenotype
- minimum effective dose to induce Tregs (donor CD4+ T cells; i.p. for two days after initiation of the GVH response): 2.0 mg/kg/day
- proteolysis of AhR (AhR): delayed its proteolysis
